Results as given in patent US20200369674A1, “ANTI-PAIN COMPOUND AND PREPARATION METHOD THEREOF” (LUNAN PHARMACEUTICAL GROUP CORPORATION, priority 2017, published 2020).

Experiments:
ICR mice [1] = test: Hot plate test; assay type: in vivo; settings: Mus musculus, po; 1 mg/kg intragastric, latency 2.0 hours after administration, hot plate 55° C.; read-out: PTE %
Experimental: (§1) ICR mice, 18-22 g, half of them being male and the other half being female, provided by the Department of Laboratory Animals, Peking University (License No.: SCXK (Beijing) 2016-0010).
The temperature of hot plate was adjusted to 55° C., and the responses of mouse such as licking hind feet and jumping were used as the observation indexes. The time from the placement of mice on copper plate to the appearance of the above responses was defined as latency time. The latency time was measured for three times 30 minutes before administration, and the average value thereof was used as basic threshold, or baseline latency (BL). The animals with a latency time greater than 15 s and less than 5 s were removed, and the residual mice were randomly grouped, 8 animals per group.
Vehicle control group (double-distilled water) and groups for samples to be tested (the compounds and doses thereof were shown in Table 1) were set. All drugs were dissolved in […] before administration, and given by intragastric administration. The latency time was measured 2.0 hours after administration. Percentage of Pain Threshold Elevated Rate (PTE %) of compound on mice was calculated according to the following formula:
PTE %=(latency time of test group−latency time of vehicle control group)/latency time of vehicle control group×100

ICR mice [2] = test: Formalin experiment; assay type: in vivo; settings: Mus musculus, po, 2 h; 1 mg/kg intragastric, 2.5% formalin two hours after administration, phase II 10-60 minutes; read-out: Phase II pain inhibition rate (%)
Experimental: as §1
ICR mice, half of them being male and the other half being female, were randomly grouped, 8 mice per group. Vehicle control group (double-distilled water) and groups for samples to be tested were set, in which the compounds and doses thereof were shown in Table 3. All drugs were dissolved in double-distilled water before administration, and given by intragastric administration at predetermined doses. Two hours after administration, the mice were injected with 20 ul of 2.5% formalin solution in the right hind foot, and the time (s) of licking or biting foot was recorded as an index of pain response, in which 0-5 minutes was phase I, 10-60 minutes was phase II, and the total observation time was 60 minutes. The phase II pain inhibition rate of compound in mice was calculated according to the following formula:
Inhibition rate %=(time of licking or biting foot in vehicle control group−time of licking or biting foot in test group)/time of licking or biting foot in vehicle control group×100

CCI rats = test: Mechanical stimulation paw withdrawal threshold (MWT) in CCI rats; assay type: in vivo, SD rats; settings: for inhibition rate (absolute %): PTE % vs vehicle; for MWT: mean±SEM; for inhibition rate (relative %): relative to sham minus vehicle
Experimental: SD rats, body weight 180 g-220 g, half of them being male and the other half being female, provided by the Department of Laboratory Animals, Peking University. The rats were raised in a standard environment with temperature of 22±0.5° C. and relative humidity of 55±5%, 12 h/12 h light-dark cycle, and fed with standard feed.
Rat was anesthetized with pentobarbital sodium (60 mg/kg, i.p.), the right hind limb was surgically shaved, fixed in the prone position, a longitudinal incision was made along the middle of the right hind limb of the rat, the muscle was bluntly separated, the sciatic nerve was exposed, and the sciatic nerve bifurcate proximal end was loosely ligated with 4-0 silk suture for 4 times, with an interval of about 1 mm each time, in which the degree of tightness was suitable when it was observed that the right hind leg was slightly shaken. After ligation, the muscle and skin were sutured in sequence. For the sham-operated group, the sciatic nerve was only exposed, but not ligated. The success of modeling was determined by observing whether the hind limb of the rat's operation side was closed, slightly valgus and often vacated, and by measuring the mechanical stimulation paw withdrawal threshold and the thermal stimulation paw withdrawal latency of the rat.
Before surgery, the mechanical stimulation paw withdrawal thresholds and the thermal stimulation paw withdrawal latencies in the rats were determined, and the rats were grouped as: sham operation group (sham), vehicle group (double-distilled water, i.g.), DXL-A-22 group (2 mg/kg, i.g.), DXL-A-24 group (1 mg/kg, i.g.), and Gabapentin group (100 mg/kg, i.g.). All compounds and drugs were dissolved in double-distilled water, and given by intragastric administration at 1 mL/100 g. From the first day after surgery, the administration was carried out every day, and the mechanical stimulation paw withdrawal threshold and the thermal stimulation paw withdrawal latency were measured 2 hours after administration.
The mechanical stimulation paw withdrawal threshold (MWT) of rats was detected by von Frey electronic pain tester. The measurement was carried out on the days 5, 7 and 14 after operation. The rats were placed in a transparent plexiglass box (whose bottom was a wire mesh with a gap of 1 mm^2) to adapt to the environment for 30 min. After the rats had no exploration action, the von Frey electronic pain tester was used to stimulate the middle position of paw at the operation side of the rat, and the maximum force caused by rat paw withdrawal response (i.e., MWT) was recorded. The inhibition rate of the compound was calculated according to the following formula:
Absolute increase rate (i.e., PTE %): PTE %=(MWT of test group−MWT of vehicle group)/MWT of vehicle group×100 (1)
Relative increase rate: Inhibition rate %=(MWT of test group−MWT of vehicle group)/(MWT of Sham operation group−MWT of vehicle group)×100 (2)

[3] = 2 mg/kg i.g. daily, Day 5 after operation, section 3.1
[4] = 2 mg/kg i.g. daily, Day 7 after operation, section 3.1
[5] = 2 mg/kg i.g. daily, Day 14 after operation, section 3.1
[6] = 1 mg/kg i.g. daily, Day 5 after operation, section 3.3
[7] = 1 mg/kg i.g. daily, Day 7 after operation, section 3.3
[8] = 1 mg/kg i.g. daily, Day 14 after operation, section 3.3

Row | SMILES | change in vivo at 1 mg/kg (ICR mice [1]) [%] | inhibition in vivo at 1 mg/kg (ICR mice [2]) [%] | inhibition rate (absolute %) (CCI rats; [3]) [%] | MWT (CCI rats; [3]) | inhibition rate (relative %) (CCI rats; [3]) [%] | inhibition rate (absolute %) (CCI rats; [4]) [%] | MWT (CCI rats; [4]) | inhibition rate (relative %) (CCI rats; [4]) [%] | inhibition rate (absolute %) (CCI rats; [5]) [%] | MWT (CCI rats; [5]) | inhibition rate (relative %) (CCI rats; [5]) [%] | inhibition rate (absolute %) (CCI rats; [6]) [%] | MWT (CCI rats; [6]) | inhibition rate (relative %) (CCI rats; [6]) [%] | inhibition rate (absolute %) (CCI rats; [7]) [%] | MWT (CCI rats; [7]) | inhibition rate (relative %) (CCI rats; [7]) [%] | inhibition rate (absolute %) (CCI rats; [8]) [%] | MWT (CCI rats; [8]) | inhibition rate (relative %) (CCI rats; [8]) [%]
1 | Br.Brc1ccc(N2CC[N+]3(CCCC3)CC2)cc1 [DXL-A-22, 8-(4-bromophenyl)-5,8-diazaspiro[4.5]decan-5-ium bromide] | 52.6 | 52.6 | 76.88 | 19.28 ± 1.44**/ | 31.01 | 116.83 | 22.16 ± 0.79**/ | 43.18 | 108.81 | 22.05 ± 0.74**/ | 41.26 | – | – | – | – | – | – | – | – | –
2 | FC(F)(F)c1ccc(N2CC[N+]3(CCCC3)CC2)cc1.[Br-] [DXL-A-24, 8-(4-(trifluoromethyl)phenyl)-5,8-diazaspiro[4.5]decan-5-ium bromide] | 48.6 | 50.2 | – | – | – | – | – | – | – | – | – | 75.78 | 20.32 ± 1.09**/ | 35.35 | 117.94 | 22.84 ± 1.64**/ | 47.89 | 75.09 | 20.31 ± 1.57**/ | 33.24
